Test results from patent publication US20260285850A1, “SUBSTITUTED OXAZOLIDINONES AND IMIDAZOLINONES AS HERBICIDES” (FMC CORPORATION, priority 2023, published 2026).

How the values were obtained:
Type in all cases: in vivo
[1] = tested on: barnyardgrass (Echinochloa crus-galli); assay: Test A preemergence soil spray, visual injury rating 0-100; settings: 10 days
How it was run: (§1)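 Visual injury, scored 0-100 (100 = complete control) against untreated plants, 10 days after greenhouse treatment. Test chemicals in surfactant-containing non-phytotoxic solvent were applied in loam soil and sand, as a preemergence soil spray on seeds or postemergence to plants at the one- to two-leaf stage.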

[2] = tested on: blackgrass (Alopecurus myosuroides); assay: as above; settings: 10 days
How it was run: as §1

corn (Zea mays) [3] = assay: as above; settings: 10 days
How it was run: as §1

[4] = tested on: green foxtail (Setaria viridis); assay: as above; settings: 10 days
How it was run: as §1

kochia (Bassia scoparia) [5] = assay: as above; settings: 10 days
How it was run: as §1

[6] = tested on: oat, wild (wild oat, Avena fatua); assay: as above; settings: 10 days
How it was run: as §1

[7] = tested on: palmer (palmer amaranth, palmer pigweed, Amaranthus palmeri); assay: as above; settings: 10 days
How it was run: as §1

[8] = tested on: ragweed (common ragweed, Ambrosia artemisiifolia); assay: as above; settings: 10 days
How it was run: as §1

[9] = tested on: ryegrass, Italian (italian ryegrass, Lolium multiflorum); assay: as above; settings: 10 days
How it was run: as §1

soybean (Glycine max) [10] = assay: as above; settings: 10 days
How it was run: as §1

[11] = tested on: wheat (Triticum aestivum); assay: as above; settings: 10 days
How it was run: as §1

[12] = tested on: barnyardgrass (Echinochloa crus-galli); assay: Test A postemergence application, visual injury rating 0-100
How it was run: as §1

[13] = tested on: blackgrass (Alopecurus myosuroides); assay: as above
How it was run: as §1

corn (Zea mays) [14] = assay: as above
How it was run: as §1

[15] = tested on: galium (catchweed bedstraw, Galium aparine); assay: as above
How it was run: as §1

[16] = tested on: green foxtail (Setaria viridis); assay: as above
How it was run: as §1

[17] = tested on: horseweed (Erigeron canadensis); assay: as above
How it was run: as §1

kochia (Bassia scoparia) [18] = assay: as above
How it was run: as §1

[19] = tested on: oat, wild (wild oat, Avena fatua); assay: as above
How it was run: as §1

[20] = tested on: palmer (palmer amaranth, palmer pigweed, Amaranthus palmeri); assay: as above
How it was run: as §1

[21] = tested on: ragweed (common ragweed, Ambrosia artemisiifolia); assay: as above
How it was run: as §1

[22] = tested on: ryegrass, Italian (italian ryegrass, Lolium multiflorum); assay: as above
How it was run: as §1

soybean (Glycine max) [23] = assay: as above
How it was run: as §1

[24] = tested on: wheat (Triticum aestivum); assay: as above
How it was run: as §1

[25] = tested on: barnyardgrass (Echinochloa crusgalli); assay: Test B flooded paddy test, visual plant response rating 0-100; settings: 250 g ai/ha, Flood, applied to paddy water, evaluated after 13 days
How it was run: (§2)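 Plants were grown to the 2-leaf stage, then pots were flooded to 3 cm above the soil and test compounds were applied directly into the paddy water. Water depth was held there throughout; after 13 days in a greenhouse, injury was scored visually against untreated controls.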

[26] = tested on: ducksalad (Heteranthera limosa); assay: as above; settings: 250 g ai/ha, Flood, applied to paddy water, evaluated after 13 days
How it was run: as §2

rice (Oryza sativa) = assay: as above; settings: 250 g ai/ha, Flood, applied to paddy water, evaluated after 13 days
How it was run: as §2

[27] = tested on: sedge, umbrella (small-flower umbrella sedge, Cyperus difformis); assay: as above; settings: 250 g ai/ha, Flood, applied to paddy water, evaluated after 13 days
How it was run: as §2

[28] = 62 g ai/ha, 0 = no effect, 100 = complete control
[29] = 62 g ai/ha, postemergence, 10 days, 0 = no effect, 100 = complete control
[30] = Postemergence, 16 g ai/ha, greenhouse 10 days, 0 no effect, 100 complete control

C=CC1(C(=O)NC2CC(C(=O)OC)C2)CN(c2cc(F)cc(F)c2)C(=O)O1 (stereo not shown) [Compound 174]
0: Barnyardgrass plant response rating ([1]; 16 g ai/ha, 0 to 100 scale) | Barnyardgrass plant response rating (0-100) [1, 28] | Blackgrass plant response rating ([2]; 16 g ai/ha, 0 to 100 scale) | Blackgrass plant response rating (0-100) [2, 28] | Corn plant response rating (corn (Zea mays) [3]; 16 g ai/ha, 0 to 100 scale) | Corn plant response rating (0-100) (corn (Zea mays) [3]; [28]) | Foxtail, Green plant response rating ([4]; 16 g ai/ha, 0 to 100 scale) | Foxtail, Green plant response rating (0-100) [4, 28] | Kochia plant response rating (kochia (Bassia scoparia) [5]; 16 g ai/ha, 0 to 100 scale) | Kochia plant response rating (0-100) (kochia (Bassia scoparia) [5]; [28]) | Oat, Wild plant response rating ([6]; 16 g ai/ha, 0 to 100 scale) | Oat, Wild plant response rating (0-100) [6, 28] | Pigweed, Palmer plant response rating ([7]; 16 g ai/ha, 0 to 100 scale) | Pigweed, Palmer plant response rating (0-100) [7, 28] | Ragweed plant response rating ([8]; 16 g ai/ha, 0 to 100 scale) | Ragweed plant response rating (0-100) [8, 28] | Ryegrass, Italian plant response rating ([9]; 16 g ai/ha, 0 to 100 scale) | Ryegrass, Italian plant response rating (0-100) [9, 28] | Soybean plant response rating (soybean (Glycine max) [10]; 16 g ai/ha, 0 to 100 scale) | Soybean plant response rating (0-100) (soybean (Glycine max) [10]; [28]) | Wheat plant response rating ([11]; 16 g ai/ha, 0 to 100 scale) | Wheat plant response rating (0-100) [11, 28] | Blackgrass plant response rating (0-100) [13, 29] | Blackgrass plant response rating (0 to 100 scale) [13, 30] | Corn plant response rating (0-100) (corn (Zea mays) [14]; [29]) | Corn plant response rating (0 to 100 scale) (corn (Zea mays) [14]; [30]) | Galium plant response rating (0-100) [15, 29] | Galium plant response rating (0 to 100 scale) [15, 30] | Foxtail, Green plant response rating (0-100) [16, 29] | Foxtail, Green plant response rating (0 to 100 scale) [16, 30] | Horseweed plant response rating (0-100) [17, 29] | Horseweed plant response rating (0 to 100 scale) [17, 30] | Kochia plant response rating (0-100) (kochia (Bassia scoparia) [18]; [29]) | Kochia plant response rating (0 to 100 scale) (kochia (Bassia scoparia) [18]; [30]) | Oat, Wild plant response rating (0-100) [19, 29] | Oat, Wild plant response rating (0 to 100 scale) [19, 30] | Pigweed, Palmer plant response rating (0-100) [20, 29] | Pigweed, Palmer plant response rating (0 to 100 scale) [20, 30] | Ragweed plant response rating (0-100) [21, 29] | Ragweed plant response rating (0 to 100 scale) [21, 30] | Ryegrass, Italian plant response rating (0-100) [22, 29] | Ryegrass, Italian plant response rating (0 to 100 scale) [22, 30] | Soybean plant response rating (0-100) (soybean (Glycine max) [23]; [29]) | Soybean plant response rating (0 to 100 scale) (soybean (Glycine max) [23]; [30]) | Wheat plant response rating (0-100) [24, 29] | Wheat plant response rating (0 to 100 scale) [24, 30] | Plant response rating, Barnyardgrass (0 to 100 scale, 0 is no effect and 100 is complete control) [25] | Plant response rating, Ducksalad (0 to 100 scale, 0 is no effect and 100 is complete control) [26] | Plant response rating, Rice (0 to 100 scale, 0 is no effect and 100 is complete control) (rice (Oryza sativa)) | Plant response rating, Sedge, Umbrella (0 to 100 scale, 0 is no effect and 100 is complete control) [27]
20: Barnyardgrass plant response rating (0-100) [12, 29]
10: Barnyardgrass plant response rating (0 to 100 scale) [12, 30]
